Like-named read-outs stand apart in the source and are kept apart here.
Key:
[1] = system: IL-1β induced GAG release; assay: IL-1β induced GAG release in chondrocyte culture (DMB assay); format: cell-based, New Zealand white rabbits; details: Oryctolagus cuniculus, rabbit articular chondrocytes, stimulation with 0.3 ng/mL of IL-1β, 24 h, read-out: GAG Release inhibitory activity IC50
Description: (§1) Inhibitory effects of compounds of this invention were assessed according to the following in vitro assay:
(§2) Normal articular chondrocytes were obtained from young New Zealand white rabbits. Shoulders, femoral heads and knees were detached and transferred under a laminar flow hood. The articular cartilage was removed from the articular surfaces under sterile conditions. Tissue fragments were successively digested in an incubator (37°C, 5% CO2/95% air) with enzymes dissolved in DMEM plus 50 µg/ml gentamicin and sterile filtered. The three-step digestion was carried out with 0.05% testicular hyaluronidase for 15 min, followed by 0.25% trypsin for 30 min, and 0.2% clostridium collagenase for 90 min. At the end of the incubation period, chondrocyte suspension was two-fold diluted with DMEM plus 10% FCS, passed through a 200 µm and a 50 µm nylon sieves to remove debris and undigested matrix particles. […]
Proteoglycans associated to cell monolayer were quantified with Dimethylmethylene blue (DMB) assay. […] The absorbance was read within 20 min at 590 nm with a HTS7000plus plate reader. […] The optical density was measured at 590 nm using a plate reader HTS7000plus (Perkin Elmer).

PGE2 Synthesis [2] = assay: IL-1β induced PGE2 synthesis in chondrocyte culture (RIA); format: cell-based, New Zealand white rabbits; details: Oryctolagus cuniculus, rabbit articular chondrocytes, stimulation with 0.3 ng/mL of IL-1β, 24 h, read-out: PGE2 Synthesis inhibitory activity IC50
Description: as §1, §2
PGE2 released into the culture medium was determined with a RadioImmunoAssay (RIA) performed according to the instructions of the PGE2 antiserum manufacturer (Sigma). […] The supernatant was counted in 7 ml of Ultima-Gold MV® and the amount of radioactivity measured in a Packard Tricarb β-counter. […]

NO Synthesis [3] = assay: IL-1β induced NO synthesis in chondrocyte culture (nitrite, DAN fluorometric method); format: cell-based, New Zealand white rabbits; details: Oryctolagus cuniculus, rabbit articular chondrocytes, stimulation with 0.3 ng/mL of IL-1β, 24 h, read-out: NO Synthesis inhibitory activity IC50
Description: as §1
as §2, with “min.” for “min. At the end of the incubation period, chondrocyte suspension was two-fold diluted with DMEM plus 10% FCS, passed through a 200 µm and a 50 µm nylon sieves to remove debris and undigested matrix particles.”
NO production by chondrocytes was measured as nitrite, a stable end product and a reliable indicator of NO synthesis. Nitrites released in the culture supernatant were quantified with the fluorometric method according to Misko (Misko TP, Schilling RJ, Salvemini D, Moore WM, Currie MG. Anal Biochem; 214:11-16, 1993). […] The intensity of fluorescence was recorded in a 96-well plate (optiplate, Packard) with a plate reader (HTS7000 plus, Perkin Elmer) with excitation at 360 nm and emission read at 465 nm. Nitrite concentrations were calculated from a standard curve of sodium nitrite ranging from 10 to 100 ng/ml.

[4] = Apparent permeability (Papp) across TC-7 cell monolayer; format: in vitro ADME; details: human, Caco-2; TC-7 cells, pH 6.5/7.4, average of two experiments
From the text: The preferred route of administration for the compounds of the invention is oral, therefore the compound should have suitable permeability across the human intestinal epithelia to allow absorption into the circulation. However, also when the parenteral route is chosen for administration, an effective compound must be sufficiently permeable across biological membranes to reach the site/s of action. The permeability of compounds of formula (I) has been assessed in vitro using the apparent permeability coefficients approach (Papp) (Pharmacokinetics Optimization in Drug Research: biological, physicochemical and computational strategies; Bernard Testa, Han van de Waterbeemd, 2001, Wiley). The TC-7 clone was used instead of the Caco-2 cell line for this assessment, since it was reported that the two human intestinal epithelial cell lines are equivalent as far as drug transport characteristics are concerned and thus can be used interchangeably to predict absorption in humans after oral administration (MC Gres et al., Pharm. Res., 15, 5, 726-33, 1998); the experimental work was carried out as described in the mentioned literature.
(§3) Permeability and metabolic stability data are the average of two experiments.

[5] = Metabolic stability in human liver S9 fraction; format: in vitro ADME; details: human liver S9, 1µM, average of two experiments
From the text: (§4) Metabolic stability for the compounds of the invention has been assessed using rat, dog and human liver S9 fractions, using the same methods as described in the literature (R Singh et al., Rapid Commun. Mass Spectrom., 10, 9, 1019-26, 1996).
as §3

[6] = Metabolic stability in dog liver S9 fraction; format: in vitro ADME; details: dog liver S9, 1µM, average of two experiments
From the text: as §4, §3

[7] = Metabolic stability in rat liver S9 fraction; format: in vitro ADME; details: rat liver S9, 1µM, average of two experiments
From the text: as §4, §3

Solubility in water = format: physicochemical; details: pH 7.4, aqueous buffer
GAG Release = details: Human articular cartilage, IL-1β induced; JPET, 308, 767-773, 2004; read-out: GAG Release inhibitory activity IC50; cited from earlier work
PGE2 Synthesis [8] = details: Human articular chondrocytes, IL-1β induced; Free Rad.Biol.Med. 33, 1097-1105, 2002; read-out: PGE2 Synthesis inhibitory activity IC50; cited from earlier work
NO Synthesis [9] = details: Human articular chondrocytes, IL-1β induced; Free Rad.Biol.Med. 33, 1097-1105, 2002; read-out: NO Synthesis inhibitory activity IC50; cited from earlier work
PGE2 Synthesis [10] = details: Human chondrocytes, IL-1β induced; Osteoarthritis and Cartilage, 2000, 8(6), 434; read-out: PGE2 Synthesis inhibitory activity IC50; cited from earlier work
NO Synthesis [11] = details: Bovine articular cartilage, IL-1β induced; Osteoarthritis and Cartilage, 2000, 8(6), 434; read-out: NO Synthesis inhibitory activity IC50; cited from earlier work

OC[C@@H](O)[C@@H](O)[C@H](O)c1cnc([C@@H](O)[C@H](O)[C@H](O)CO)cn1 [Compound 1.1, Bis-(1R, 1'R, 2S, 2'S, 3R, 3'R)-1,2,3,4-butanetetrol-1,1'-(2,5-pyrazinediyl)]
IC50 [1]: 46 µM | IC50 (PGE2 Synthesis [2]): 4 µM | IC50 (NO Synthesis [3]): 8 µM | Papp A→B [4]: 113 ×10⁻⁶ cm/s | Papp B→A [4]: 72.9 ×10⁻⁶ cm/s | In vitro metabolism Parent remaining (%) Test concentration 1µM Human [5]: 108% | In vitro metabolism Parent remaining (%) Test concentration 1µM Dog [6]: 96% | In vitro metabolism Parent remaining (%) Test concentration 1µM Rat [7]: 110% | solubility (Solubility in water): ≤ 100 mM

O=C(O[C@@H]1Cc2c(O)cc(O)cc2O[C@@H]1c1cc(O)c(O)c(O)c1)c1cc(O)c(O)c(O)c1 [EGCG, epigallocatechin gallate]
IC50 (GAG Release): ~100 µM | IC50 (PGE2 Synthesis [8]): > 200 µM | IC50 (NO Synthesis [9]): ~200 µM

COc1nccc(-c2c(-c3ccc(F)cc3)ncn2C2CCNCC2)n1 [SB-242235]
IC50 (PGE2 Synthesis [10]): 1 to 3 µM | IC50 (NO Synthesis [11]): 1 µM

Source: patent EP1704862A1, “2,5-bis(tetrahydroxybutyl)pyrazines for the treatment of osteoarthritis and rheumatoid arthritis” (ROTTAPHARM S.P.A., priority 2005, dated 2006)
